{
  "source": "patent US12691086B2",
  "about": "“Methods of treating systemic sclerosis and idiopathic pulmonary fibrosis” (HORIZON THERAPEUTICS IRELAND DAC, priority 2022, dated 2026)",
  "key": {"[1]": {"system": "bleomycin-induced skin fibrosis", "experiment": "Bleomycin-induced skin fibrosis model, therapeutic protocol", "format": "in vivo, mouse", "conditions": "50 mg/kg/day", "source_text": "Two models of skin fibrosis were used to evaluate the effect of Compound I in comparison with imatinib mesylate, used as a reference."}, "[2]": {"system": "thrombosis", "experiment": "Acute models of coagulation and arterial thrombosis (two models in rats)", "format": "in vivo", "source_text": "(§1) All these pathological events can be observed in SSc patients at different levels and further support the use of Compound I in these patients."}, "[3]": {"system": "patients with early dcSSc", "conditions": "Allanore et al. 2018, cited from earlier work"}, "[4]": {"system": "leukocytes and total inflammatory cells in broncho-alveolar lavage", "experiment": "Broncho-alveolar lavage of presensitized mice treated with ovalbumin", "format": "in vivo"}, "[5]": {"system": "skin fibrosis", "conditions": "mouse, in vivo; cited from earlier work"}, "[6]": {"system": "cardiac hypertrophy, fibrosis and heart failure", "experiment": "Models of hypertension or diabetes-related cardiac hypertrophy, fibrosis and heart failure", "conditions": "in vivo", "source_text": "as §1"}, "[7]": {"experiment": "Multiple-dose (BID) PK at steady state with meals in healthy adult subjects", "format": "in vivo, human", "conditions": "for t1/2 / half-life: median; for Ctrough / AUC / Cmax: steady state, mean (% CV); for AUC / Cmax / half-life: human, plasma, oral", "procedure": "(§2) The PK of Compound I and food effect were evaluated in an open-label study in healthy volunteers to inform the dose and dosing condition of the tablet formulations used in the clinical studies. Dose proportionality and food effect were evaluated using a 2-way, 2-period crossover design in two cohorts:150 mg and 300 mg single dose under fasting condition in Cohort 1 and 450 mg single dose under fasting and high-fat, high calorie meal condition in Cohort 2. Multiple-dose PK was evaluated using a 2-period, fixed sequence crossover design. Subjects received Compound I twice a day (BID) of 300 mg (Cohort 3) or 450 mg (Cohort 4) administered with low-fat meals in Period 1 and with high-fat meals in Period 2.\n(§3) PK sample collections: For cohort 1 and 2, blood samples were collected at predose, 0.5, 1, 2, 3, 4, 6, 8, 12, 24, 36, 48, 72, 96 and 120 h post dose. For cohort 3 and 4, blood samples were collected at predose, 0.5, 1, 2, 4, 5, 12 hrs after the first dose on Day 1. After the last dose on Day 5, PK samples were taken at predose, 0.5, 1, 2, 4, 6, 12, 24, 36, 60, 84, 108 hr in Period 1 and predose, 0.5, 1, 2, 4, 6, 12 hours post last dose in Period 2.\n(§4) Plasma concentrations of Compound I were determined using a validated high performance liquid chromatography-tandem mass spectrometry (HPLC MS/MS) method. The analytical range of Compound I were 250-50,000 ng/mL (high range) and […] (low range). Dose-proportionality of pharmacokinetic parameters were examined by analysis of variance (ANOVA) where the AUC0-last, AUC0-inf, and Cmax parameters were dose normalized. 90% confidence intervals (CIs) were derived by exponentiation of the CIs obtained for the difference between the treatment LSMs (Least square means). Dose proportionality was established if the 90% CI for the ratio of the geometric means for the dose-normalized parameters lay within the limits of (0.7, 1.43)."}, "[8]": {"experiment": "Food effect on PK at 450 mg single dose in healthy adult subjects", "format": "in vivo, human", "conditions": "for AUC(0-inf) / AUC(0-t) / Cmax: human, plasma, oral; for AUC(0-inf): read-out: AUC0-inf, Geometric LSM; for AUC(0-t): read-out: AUC0-last, Geometric LSM; for Cmax: read-out: Cmax, Geometric LSM", "procedure": "as §2, §3, §4\nFood effect was evaluated using ANOVA on the ln-transformed PK parameters. The ANOVA model included sequence, treatment, and period as fixed effects and subject nested within sequence as a random effect. Geometric least square means, geometric mean ratio (High fat vs. fasted) and 90% confidence interval of PK parameters (AUC and Cmax) were calculated from the ANOVA model."}, "[9]": {"biological_target": "lysophosphatidic acid receptor 1 (LPAR1) (Homo sapiens, UniProt Q92633)", "sequence (Q92633 whole entry)": "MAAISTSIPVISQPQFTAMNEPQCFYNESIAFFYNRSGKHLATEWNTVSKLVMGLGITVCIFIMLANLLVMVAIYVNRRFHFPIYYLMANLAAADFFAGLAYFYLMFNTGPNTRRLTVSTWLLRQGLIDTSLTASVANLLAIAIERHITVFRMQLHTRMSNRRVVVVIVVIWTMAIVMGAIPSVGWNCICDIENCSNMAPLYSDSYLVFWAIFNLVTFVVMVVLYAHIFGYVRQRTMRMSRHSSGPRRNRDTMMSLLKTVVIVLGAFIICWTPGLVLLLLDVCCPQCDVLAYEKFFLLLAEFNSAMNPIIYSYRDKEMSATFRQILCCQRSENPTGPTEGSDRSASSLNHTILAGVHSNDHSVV", "experiment": "LPAR1 antagonism"}, "[10]": {"conditions": "therapeutic protocol, mouse skin"}, "[11]": {"conditions": "300 mg BID, High-fat reduced calorie meal"}, "[12]": {"conditions": "450 mg BID, High-fat high calorie meal"}, "[13]": {"conditions": "300 mg, 300 mg BID, High-fat reduced calorie meal"}, "[14]": {"conditions": "300 mg, 300 mg BID, Low-fat meal"}, "[15]": {"conditions": "450 mg, 450 mg BID, High-fat high calorie meal"}, "[16]": {"conditions": "450 mg, 450 mg BID, Low-fat meal"}, "[17]": {"conditions": "Fed (high-fat, high-calorie meal)"}},
  "note": "“Also recorded” adds a separate entry of the source. Where two headings read alike, the source gives them in different places.",
  "data": [
    {"smiles": "COc1ccc(C(=O)NC2(C(=O)O)Cc3ccccc3C2)cc1OCCc1cccc(C)c1", "note": "[Compound I, 2-(4-methoxy-3-(3-methylphenethoxy)benzamido)-2,3-dihydro-1H-indene-2-carboxylic acid]", "values": [
      {"measurement": "effect on these markers versus imatinib reference", "setting": "[1]", "result": "comparable with the effects of imatinib"},
      {"measurement": "collagen content", "setting": "[1]; [10]", "result": "able to reverse"},
      {"measurement": "dermal thickness", "setting": "[1]; [10]", "result": "able to reverse"},
      {"measurement": "myofibroblast differentiation", "setting": "[1]; [10]", "result": "able to reverse"},
      {"measurement": "antithrombotic activity", "setting": "[2]", "result": "moderate but significant antithrombotic activity; also recorded: demonstrated antithrombotic activity"},
      {"measurement": "most frequent treatment-emergent adverse events (TEAEs)", "setting": "[3]; 8-week double-blind period", "result": "headache, diarrhea, nausea and fall"},
      {"measurement": "tolerability", "setting": "[3]; about 300 mg BID up to 24 weeks", "result": "well tolerated"},
      {"measurement": "clinical outcome measures (mRSS, HAQ-DI, SHAQ components, disease severity VAS, pruritus VAS)", "setting": "[3]; about 300 mg BID", "result": "improved outcome measures; also recorded: numerical improvement"},
      {"measurement": "target engagement", "setting": "[3]", "result": "demonstrated target engagement"},
      {"measurement": "inflammation in model of lung injury", "setting": "[4]; predominant Th2-type response", "result": "reduces inflammation"},
      {"measurement": "accumulation of leukocytes and total inflammatory cells in broncho-alveolar lavage", "setting": "[4]; presensitized mice treated with ovalbumin", "result": "significant inhibitory effect"},
      {"measurement": "collagen content", "setting": "[5]", "result": "reduced"},
      {"measurement": "dermal thickening", "setting": "[5]", "result": "reversed"},
      {"measurement": "myofibroblast differentiation", "setting": "[5]", "result": "significantly inhibited"},
      {"measurement": "arterial stiffness", "setting": "[6]", "result": "positive effect"},
      {"measurement": "blood pressure", "setting": "[6]", "result": "mostly unchanged"},
      {"measurement": "cardiac function and structure", "setting": "[6]", "result": "beneficial effect"},
      {"measurement": "cardiac systolic and diastolic function", "setting": "[6]", "result": "improves"},
      {"measurement": "t1/2", "setting": "[7]; [11]", "result": 24.6, "unit": "h"},
      {"measurement": "Ctrough", "setting": "[7]; [11]", "result": "8627 (17%) ng/mL"},
      {"measurement": "Ctrough", "setting": "[7]; 300 mg BID, Low-fat meal", "result": "6570 (13%) ng/mL"},
      {"measurement": "t1/2", "setting": "[7]; [12]", "result": 27.7, "unit": "h"},
      {"measurement": "Ctrough", "setting": "[7]; [12]", "result": "11000 (23%) ng/mL"},
      {"measurement": "Ctrough", "setting": "[7]; 450 mg BID, Low-fat meal", "result": "11000 (35%) ng/mL"},
      {"measurement": "AUC", "setting": "[7]; [13]", "result": 166, "unit": "µg·h/mL"},
      {"measurement": "Cmax", "setting": "[7]; [13]", "result": 21700, "unit": "ng/mL"},
      {"measurement": "AUC", "setting": "[7]; [14]", "result": 129, "unit": "µg·h/mL"},
      {"measurement": "Cmax", "setting": "[7]; [14]", "result": 15900, "unit": "ng/mL"},
      {"measurement": "AUC", "setting": "[7]; [15]", "result": 204, "unit": "µg·h/mL"},
      {"measurement": "Cmax", "setting": "[7]; [15]", "result": 25800, "unit": "ng/mL"},
      {"measurement": "AUC", "setting": "[7]; [16]", "result": 163, "unit": "µg·h/mL"},
      {"measurement": "Cmax", "setting": "[7]; [16]", "result": 18400, "unit": "ng/mL"},
      {"measurement": "half-life", "setting": "[7]; 300 mg BID, Low-fat meal", "result": 24.6, "unit": "h"},
      {"measurement": "half-life", "setting": "[7]; 450 mg BID, Low-fat meal", "result": 27.7, "unit": "h"},
      {"measurement": "Cmax, GMR fed vs fasted", "setting": "[8]", "result": 190.85, "unit": "%"},
      {"measurement": "AUC(0-inf)", "setting": "[8]; Fasted", "result": 117, "unit": "µg·h/mL"},
      {"measurement": "AUC(0-t)", "setting": "[8]; Fasted", "result": 116, "unit": "µg·h/mL"},
      {"measurement": "Cmax", "setting": "[8]; Fasted", "result": 14000, "unit": "ng/mL"},
      {"measurement": "AUC(0-inf)", "setting": "[8]; [17]", "result": 248, "unit": "µg·h/mL"},
      {"measurement": "AUC(0-t)", "setting": "[8]; [17]", "result": 246, "unit": "µg·h/mL"},
      {"measurement": "Cmax", "setting": "[8]; [17]", "result": 26700, "unit": "ng/mL"},
      {"measurement": "LPAR1 antagonist activity", "setting": "[9]", "result": "potent and selective antagonist"}
    ]}
  ]
}
